Experimental data reported in article PMC11702208 (RSC Advances, 2025).

Assays:
CCRF-CEM = assay: NCI cytotoxicity screen; type: cell-based, human; details: Homo sapiens
MOLT-4 = assay: NCI cytotoxicity screen; type: cell-based, human; details: Homo sapiens
RPMI-8226 = assay: NCI cytotoxicity screen; type: cell-based, human; details: Homo sapiens
SR = assay: NCI cytotoxicity screen; type: cell-based, human; details: Homo sapiens
A549/ATCC = assay: NCI cytotoxicity screen; type: cell-based, human; details: Homo sapiens, A549
EKVX = assay: NCI cytotoxicity screen; type: cell-based, human; details: Homo sapiens
HOP-92 = assay: NCI cytotoxicity screen; type: cell-based, human; details: Homo sapiens
NCI-H226 = assay: NCI cytotoxicity screen; type: cell-based, human; details: Homo sapiens
NCI-H23 = assay: NCI cytotoxicity screen; type: cell-based, human; details: Homo sapiens
NCI-H322M = assay: NCI cytotoxicity screen; type: cell-based, human; details: Homo sapiens
NCI-H522 = assay: NCI cytotoxicity screen; type: cell-based, human; details: Homo sapiens
COLO 205 = assay: NCI cytotoxicity screen; type: cell-based, human; details: Homo sapiens, COLO 205
HCT-116 = assay: NCI cytotoxicity screen; type: cell-based, human; details: Homo sapiens
HCT-15 = assay: NCI cytotoxicity screen; type: cell-based, human; details: Homo sapiens
KM12 = assay: NCI cytotoxicity screen; type: cell-based, human; details: Homo sapiens, KM12
SF-539 = assay: NCI cytotoxicity screen; type: cell-based, human; details: Homo sapiens
SNB-19 = assay: NCI cytotoxicity screen; type: cell-based, human; details: Homo sapiens
SNB-75 = assay: NCI cytotoxicity screen; type: cell-based, human; details: Homo sapiens
U251 = assay: NCI cytotoxicity screen; type: cell-based, human; details: Homo sapiens, U-251
LOX IMVI = assay: NCI cytotoxicity screen; type: cell-based, human; details: Homo sapiens
M14 = assay: NCI cytotoxicity screen; type: cell-based, human; details: Homo sapiens
MDA-MB-435 = assay: NCI cytotoxicity screen; type: cell-based, human; details: Homo sapiens
SK-MEL-2 = assay: NCI cytotoxicity screen; type: cell-based, human; details: Homo sapiens
SK-MEL-28 = assay: NCI cytotoxicity screen; type: cell-based, human; details: Homo sapiens
SK-MEL-5 = assay: NCI cytotoxicity screen; type: cell-based, human; details: Homo sapiens
UACC-62 = assay: NCI cytotoxicity screen; type: cell-based, human; details: Homo sapiens
IGROV1 = assay: NCI cytotoxicity screen; type: cell-based, human; details: Homo sapiens, IGROV-1
OVCAR-3 = assay: NCI cytotoxicity screen; type: cell-based, human; details: Homo sapiens, OVCAR-3
OVCAR-4 = assay: NCI cytotoxicity screen; type: cell-based, human; details: Homo sapiens, OVCAR-4
NCI/ADR-RES = assay: NCI cytotoxicity screen; type: cell-based, human; details: Homo sapiens, five-dose
SK-OV-3 = assay: NCI cytotoxicity screen; type: cell-based, human; details: Homo sapiens
ACHN = assay: NCI cytotoxicity screen; type: cell-based, human; details: Homo sapiens
CAKI-1 = assay: NCI cytotoxicity screen; type: cell-based, human; details: Homo sapiens
RXF 393 = assay: NCI cytotoxicity screen; type: cell-based, human; details: Homo sapiens
TK-10 = assay: NCI cytotoxicity screen; type: cell-based, human; details: Homo sapiens
UO-31 = assay: NCI cytotoxicity screen; type: cell-based, human; details: Homo sapiens
PC-3 = assay: NCI cytotoxicity screen; type: cell-based, human; details: Homo sapiens
MCF7 = assay: NCI cytotoxicity screen; type: cell-based, human; details: Homo sapiens, MCF7
MDA-MB-231/ATCC = assay: NCI cytotoxicity screen; type: cell-based, human; details: Homo sapiens, MDA-MB-231
HS 578T = assay: NCI cytotoxicity screen; type: cell-based, human; details: Homo sapiens, Hs-578T
BT-549 = assay: NCI cytotoxicity screen; type: cell-based, human; details: Homo sapiens
MDA-MB-468 = assay: NCI cytotoxicity screen; type: cell-based, human; details: Homo sapiens
[1] = test system: NSC lung cancer subpanel tumor cell lines; assay: NCI cytotoxicity screen, subpanel; type: cell-based, human
[2] = test system: Colon cancer subpanel tumor cell lines; assay: NCI cytotoxicity screen, subpanel; type: cell-based, human
[3] = test system: Prostate cancer subpanel tumor cell lines; assay: NCI cytotoxicity screen, subpanel; type: cell-based, human
HL-60(TB) = assay: cells; details: Homo sapiens
K-562 = assay: cells; details: Homo sapiens, K562
[4] = subpanel value, NSC lung cancer

Work on C#Cc1cccc(Nc2ncnc3cc(OCCOC)c(OCCOC)cc23)c1 [Erlotinib, reference compound] yielded a GI50 (CCRF-CEM) of 15.8 µM, a GI50 (MOLT-4) of 5.01 µM and a GI50 (RPMI-8226) of 5.01 µM. For the same compound, the GI50 (SR) was 6.3 µM, the GI50 (A549/ATCC) was 7.94 µM and the GI50 (EKVX) was 0.005 µM. It also gave a GI50 (HOP-92) of 6.3 µM, a GI50 (NCI-H226) of 6.3 µM and a GI50 (NCI-H23) of 19.9 µM. For the same compound, the GI50 (NCI-H322M) was 0.05 µM, the GI50 (NCI-H522) was 1 µM and the GI50 (COLO 205) was 31.6 µM. It also gave a GI50 (HCT-116) of 5.01 µM, a GI50 (HCT-15) of 3.16 µM and a GI50 (KM12) of 63.1 µM. The GI50 (SF-539) was 12.6 µM, the GI50 (SNB-19) was 3.98 µM and the GI50 (SNB-75) was 12.6 µM. The GI50 (U251) was 19.9 µM, the GI50 (LOX IMVI) was 5.01 µM and the GI50 (M14) was 6.3 µM. The GI50 (MDA-MB-435) was 15.8 µM, the GI50 (SK-MEL-2) was 12.6 µM and the GI50 (SK-MEL-28) was 31.6 µM. The GI50 (SK-MEL-5) was 15.8 µM, the GI50 (UACC-62) was 1.25 µM and the GI50 (IGROV1) was 0.25 µM. It also gave a GI50 (OVCAR-3) of 3.16 µM, a GI50 (OVCAR-4) of 19.9 µM and a GI50 (NCI/ADR-RES) of 6.3 µM. For the same compound, the GI50 (SK-OV-3) was 0.39 µM, the GI50 (ACHN) was 0.15 µM and the GI50 (CAKI-1) was 0.1 µM. The GI50 (RXF 393) was 6.3 µM, the GI50 (TK-10) was 0.1 µM and the GI50 (UO-31) was 1.99 µM. For the same compound, the GI50 (PC-3) was 50.1 µM, the GI50 (MCF7) was 100 µM and the GI50 (MDA-MB-231/ATCC) was 1.99 µM. It also gave a GI50 (HS 578T) of 6.3 µM, a GI50 (BT-549) of 39.8 µM and a GI50 (MDA-MB-468) of 0.2 µM. The CC50 ([1]; Homo sapiens, read-out: LC50) was 97.7 µM, the GI50 ([1]; Homo sapiens, subpanel value, NSC lung cancer) was 13.1 µM and the GI50 [1, 4] was 13.1 µM. The TGI [1, 4] was 73.76 µM, the CC50 ([2]; Homo sapiens, read-out: LC50) was over 100 µM and the GI50 ([2]; Homo sapiens, subpanel value, Colon cancer) was 51.7 µM. For the same compound, the GI50 ([2]; subpanel value, Colon cancer) was 51.7 µM, the TGI ([2]; subpanel value, Colon cancer) was “c (Compounds showed values > 100 μM)” and the CC50 ([3]; Homo sapiens, read-out: LC50) was over 100 µM. The GI50 ([3]; Homo sapiens, subpanel value, Prostate cancer) was 20.9 µM, the TGI ([3]; subpanel value, Prostate cancer) was “c (Compounds showed values > 100 μM)” and the GI50 (HL-60(TB)) was 5.01 µM. It also gave a GI50 (K-562) of 15.5 µM.
